US20070066629A1
Where two headings read alike, the source gives them in different places.

Test system: Corticium solani (syn. Rhizoctonia sasakii)
Settings: individual active compound, rice, evaluated after 11 days, untreated control 81% infection
Description: 1% by weight of the emulsifier Uniperol® EL (wetting agent having emulsifying and dispersing action based on ethoxylated alkylphenols) was added to this solution, and the solution was diluted with water to the desired concentration.
The next day, oat grains infected with Corticium solani were placed into the pots (in each case 5 grains per pot). The plants were then placed in a chamber at 26° C. and maximum atmospheric humidity.
Evaluation is carried out by determining the infected leaf areas in percent. These percentages were converted into efficacies.
The efficacy (E) is calculated as follows using Abbot's formula: E=(1−α/β)*100 α corresponds to the fungicidal infection of the treated plants in % and β corresponds to the fungicidal infection of the untreated (control) plants in %
An efficacy of 0 means that the infection level of the treated plants corresponds to that of the untreated control plants; an efficacy of 100 means that the treated plants were not infected.

| Compound | Efficacy in % of the untreated control (1 ppm in the spray liquor) [%] | Efficacy in % of the untreated control (4 ppm in the spray liquor) [%] |
| --- | --- | --- |
| CC1CCN(c2c(-c3c(F)cccc3Cl)c(Cl)nc3ncnn23)CC1 [A] | 26 | – |
| CO/C=C(/C(=O)OC)c1ccccc1Oc1cc(Oc2ccccc2C#N)ncn1 [I (azoxystrobin), azoxystrobin] | 1 | 26 |
| CC1CCN(c2c(-c3c(F)cc(F)cc3F)c(Cl)nc3ncnn23)CC1 [II, 5-chloro-7-(4-methylpiperidin-1-yl)-6-(2,4,6-trifluorophenyl)-[1,2,4]triazolo[1,5-a]pyrimidine] | 26 | – |
